The values that follow come from patent publication US10821100B2, “Triazolone compounds as mPGES-1 inhibitors” (Glenmark Pharmaceuticals S.A., priority 2012, dated 2020).

By inhibition is commonly meant the relative decrease from the control value, in per cent. As a reminder, the IC50 is the midpoint of a concentration-inhibition curve.

In this experiment the target is T1, Recombinant human mPGES-1 (Homo sapiens, UniProt O14684).
T1 construct: made in house; host or cells: CHO cells (crude microsomal fractions)
T1 sequence (O14684 1-152): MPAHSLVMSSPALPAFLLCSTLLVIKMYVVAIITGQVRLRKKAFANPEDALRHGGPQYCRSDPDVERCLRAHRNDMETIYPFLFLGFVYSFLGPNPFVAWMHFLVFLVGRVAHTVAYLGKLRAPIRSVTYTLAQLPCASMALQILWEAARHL
Kind of experiment: In-vitro screening of mPGES-1 inhibitors (inhibition of PGE2 formation from PGH2, HTRF detection). Format: biochemical. Particulars: mPGES-1 enzyme; for inhibition at 1 µM: 1 μM test compound, read-out: Percentage inhibition at 1 μM; for inhibition at 10 µM: 10 μM test compound, read-out: Percentage inhibition at 10 μM; for IC50: class symbols. In a few lines: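 PGH2-to-PGE2 isomerization run for 1 min with 15 μM PGH2 after 10 min compound preincubation with microsomal enzyme (40–60 μg/mL) and 2.5 mM GSH, pH buffer 0.1 M potassium phosphate with EDTA. Stannous chloride quench, HTRF PGE2 readout, IC50 fitted against uninhibited reaction.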
A general note: In TR-FRET formats the signal depends on donor and acceptor labels being close together.

On to `CC(C)(C)C(=O)NCc1ccc(Cl)c(-n2nc(-c3ccc(Cl)c(C(F)(F)F)c3)[nH]c2=O)c1` [Example-147, N-(4-Chloro-3-(3-(4-chloro-3-(trifluoromethyl)phenyl)-4,5-dihydro-5-oxo-1,2,4-triazol-1-yl)benzyl)pivalamide], for which the IC50 was below 50 nM. Also, where the note is “crude microsomal fractions”, the inhibition at 1 µM stood at 98.6% and the inhibition at 10 µM was 97.6%.

For `COCC(C)(C)C(=O)NCc1ccc(Cl)c(-c2nn(-c3ccc(C(F)(F)F)cc3)c(=O)[nH]2)c1` [Example-122, N-(4-Chloro-3-(1-(4-(trifluoromethyl)phenyl)-4,5-dihydro-5-oxo-1H-1,2,4-triazol-3-yl)benzyl)-3-methoxy-2,2-dimethylpropanamide], the IC50 is below 50 nM. For the setting “crude microsomal fractions”, the inhibition at 1 µM was 92.2% and the inhibition at 10 µM amounted to 93.5%.

In the case of `CC(C)S(=O)(=O)NCc1cnc(C(F)F)c(-c2nn(-c3ccc(C(F)(F)F)cc3)c(=O)[nH]2)c1` [Example-188, N-((6-(Difluoromethyl)-5-(5-oxo-1-(4-(trifluoromethyl)phenyl)-4,5-dihydro-1H-1,2,4-triazol-3-yl)pyridin-3-yl)methyl)propane-2-sulfonamide], the half-maximal inhibitory concentration (IC50) was in the range of 50 to 100 nM. Also, where the note is “crude microsomal fractions”, the inhibition at 1 µM turned out to be 89.5% and the inhibition at 10 µM was 99.3%.

For the molecule `O=C(NCc1cc(-c2nn(-c3ccc(C(F)(F)F)cc3)c(=O)[nH]2)c(Cl)cc1F)C(F)(F)F` [Example-113, N-(4-chloro-2-fluoro-5-(1-(4-(trifluoromethyl)phenyl)-4,5-dihydro-5-oxo-1H-1,2,4-triazol-3-yl)benzyl)-2,2,2-trifluoroacetamide], the IC50 was below 50 nM. Also, where the note is “crude microsomal fractions”, the inhibition at 1 µM was 99.3% and the inhibition at 10 µM was 99.1%.

With `O=C(NCc1ccc(Cl)c(-c2nn(-c3ccc(C(F)(F)F)cc3)c(=O)[nH]2)c1)C1CCC1` [Example-184, N-(4-Chloro-3-(5-oxo-1-(4-(trifluoromethyl)phenyl)-4,5-dihydro-1H-1,2,4-triazol-3-yl)benzyl)cyclobutanecarboxamide], the IC50 was below 50 nM. Where the note is “crude microsomal fractions”, the inhibition at 1 µM turned out to be 98.6% and the inhibition at 10 µM amounted to 94.3%.

In the case of `O=c1[nH]c(-c2c(F)cccc2Cl)nn1-c1ccc(C#Cc2ccccc2C(F)(F)F)cc1` [Example-3, 5-(2-Chloro-6-fluorophenyl)-2-(4-{[2-(trifluoromethyl)phenyl]ethynyl}phenyl)-2,4-dihydro-3H-1,2,4-triazol-3-one], the concentration for half-maximal inhibition (IC50) is below 50 nM. Moreover, the inhibition at 1 µM (crude microsomal fractions) is 88.9%. Further, the inhibition at 3 µM (3 μM test compound, crude microsomal fractions, read-out: Percentage inhibition at 3 μM) turned out to be 96.8%.

Regarding `CC(C)C(=O)NCc1cc(-c2nn(-c3ccc(C(F)(F)F)cc3)c(=O)[nH]2)c(Cl)cc1F` [Example-133, N-(4-Chloro-2-fluoro-5-(1-(4-(trifluoromethyl)phenyl)-4,5-dihydro-5-oxo-1H-1,2,4-triazol-3-yl)benzyl)isobutyramide], the 50% inhibitory concentration (IC50) was below 50 nM. Where the note is “crude microsomal fractions”, the inhibition at 1 µM is 98% and the inhibition at 10 µM is 97.9%.

As for `COc1cc(-n2nc(-c3c(F)cccc3Cl)[nH]c2=O)ccc1-c1nc2cc(C)c(C)cc2n1C` [Example-58, 3-(2-Chloro-6-fluorophenyl)-1-(3-methoxy-4-(1,5,6-trimethyl-1H-benzo[d]imidazol-2-yl)phenyl)-1H-1,2,4-triazol-5(4H)-one], the half-inhibitory concentration (IC50) lay within 50 to 100 nM. Also, for the setting “crude microsomal fractions”, the inhibition at 1 µM came out at 95.2% and the inhibition at 10 µM came to 97.3%.

As for `CC(C)(C)C(=O)NCc1ccc(Cl)c(-n2nc(-c3ccc(C(F)(F)F)c(F)c3)[nH]c2=O)c1` [Example-146, N-(4-Chloro-3-(3-(3-fluoro-4-(trifluoromethyl)phenyl)-4,5-dihydro-5-oxo-1,2,4-triazol-1-yl)benzyl)pivalamide], the IC50 was below 50 nM. Besides, for the setting “crude microsomal fractions”, the inhibition at 1 µM is 100% and the inhibition at 10 µM was 99.7%.

For the molecule `CC(C)(C)C(=O)NCc1ccc(Cl)c(-c2nn(-c3ccc(C(F)(F)F)cc3)c(=O)[nH]2)c1` [Example-100, N-(4-Chloro-3-(5-oxo-1-(4-(trifluoromethyl)phenyl)-4,5-dihydro-1H-1,2,4-triazol-3-yl)benzyl)pivalamide], the IC50 was below 50 nM. For the setting “crude microsomal fractions”, the inhibition at 1 µM came to 100% and the inhibition at 10 µM worked out at 98.6%.

As for `CC(C)(C)C#Cc1ccc(-c2nn(-c3c(Cl)ccc(CNC(=O)C(C)(C)C)c3F)c(=O)[nH]2)cc1` [Example-111, N-(4-Chloro-2-fluoro-3-(4,5-dihydro-3-(4-(3,3-dimethylbut-1-ynyl)phenyl)-5-oxo-1,2,4-triazol-1-yl)benzyl)pivalamide], the 50% inhibitory concentration (IC50) is below 50 nM. Also, where the note is “crude microsomal fractions”, the inhibition at 1 µM was found to be 87.2% and the inhibition at 10 µM turned out to be 96.2%.

Regarding `O=c1[nH]c(-c2cc(CNS(=O)(=O)C3CC3)ccc2Cl)nn1-c1ccc(C(F)(F)F)cc1` [Example-102, N-(4-Chloro-3-(5-oxo-1-(4-(trifluoromethyl)phenyl)-4,5-dihydro-1H-1,2,4-triazol-3-yl)benzyl)cyclopropanesulfonamide], the IC50 is below 50 nM. For the setting “crude microsomal fractions”, the inhibition at 1 µM came to 96.5% and the inhibition at 10 µM came out at 98%.

As to `CC(C)C(=O)NCc1ccc(Cl)c(-c2nn(-c3ccc(C(F)(F)F)c(F)c3)c(=O)[nH]2)c1` [Example-161, N-(4-Chloro-3-(1-(3-fluoro-4-(trifluoromethyl)phenyl)-4,5-dihydro-5-oxo-1H-1,2,4-triazol-3-yl)benzyl)isobutyramide], the IC50 is below 50 nM. Further, under “crude microsomal fractions”, the inhibition at 1 µM was determined as 98% and the inhibition at 10 µM worked out at 99.4%.

Consider `O=c1[nH]c(-c2c(F)cccc2Cl)nn1-c1ccc(C#Cc2ccc(C(F)(F)F)cn2)cc1` [Example-13, 5-(2-Chloro-6-fluorophenyl)-2-(4-{[5-(trifluoromethyl)pyridin-2-yl]ethynyl}phenyl)-2,4-dihydro-3H-1,2,4-triazol-3-one], for which the IC50 is above 100 nM. Under “crude microsomal fractions”, the inhibition at 1 µM is 86.3% and the inhibition at 10 µM was 90.4%.

Take `Cc1ccc(CNC(=O)C(C)(C)C)c(C)c1-c1nn(-c2ccc(C#CC3CC3)cc2)c(=O)[nH]1` [Example-165, N-(3-(1-(4-(2-Cyclopropylethynyl)phenyl)-4,5-dihydro-5-oxo-1H-1,2,4-triazol-3-yl)-2,4-dimethylbenzyl)pivalamide]: the IC50 was below 50 nM. Where the note is “crude microsomal fractions”, the inhibition at 1 µM came to 97.9% and the inhibition at 10 µM turned out to be 99.5%.

As for `O=C(NCc1ccc(Cl)c(-n2nc(-c3ccc(C#Cc4cc(Cl)ccc4Cl)cc3F)[nH]c2=O)c1)C1CC1` [Example-78], the 50% inhibitory concentration (IC50) is below 50 nM. Also, under “crude microsomal fractions”, the inhibition at 1 µM is 99.9% and the inhibition at 10 µM stood at 99.9%.

Regarding `O=C(NCc1cnc(C(F)F)c(-c2nn(-c3ccc(C(F)(F)F)cc3)c(=O)[nH]2)c1)C1CCC1` [Example-189, N-((6-(Difluoromethyl)-5-(5-oxo-1-(4-(trifluoromethyl)phenyl)-4,5-dihydro-1H-1,2,4-triazol-3-yl)pyridin-3-yl)methyl)cyclobutanecarboxamide], the half-maximal inhibitory concentration (IC50) was below 50 nM. Moreover, for the setting “crude microsomal fractions”, the inhibition at 1 µM was 96.2% and the inhibition at 10 µM stood at 98.5%.

Consider `O=C(NCc1ccc(Cl)c(-c2nn(-c3ccc(C(F)(F)F)cc3)c(=O)[nH]2)c1)[C@H]1CCCO1` [Example-101, (R)—N-(4-Chloro-3-(5-oxo-1-(4-(trifluoromethyl)phenyl)-4,5-dihydro-1H-1,2,4-triazol-3-yl)benzyl)tetrahydrofuran-2-carboxamide], for which the concentration for half-maximal inhibition (IC50) was below 50 nM. Where the note is “crude microsomal fractions”, the inhibition at 1 µM amounted to 95% and the inhibition at 10 µM came out at 98.2%.

`[O-][S+]1NC(c2c(F)cccc2Cl)=NN1c1ccc(Br)cc1` (stereo not shown) [Example-1, 2-(4-Bromophenyl)-4-(2-chloro-6-fluorophenyl)-2,5-dihydro-1,2,3,5-thiatriazole-1-oxide]: for the setting “crude microsomal fractions”, the inhibition at 1 µM stood at 9.32% and the inhibition at 10 µM worked out at 68.2%.

As to `CC(C)(CF)C(=O)NCc1cc(-c2nn(-c3ccc(Cl)cc3)c(=O)[nH]2)c(Cl)cc1F` [Example-134, N-(4-Chloro-5-(1-(4-chlorophenyl)-4,5-dihydro-5-oxo-1H-1,2,4-triazol-3-yl)-2-fluorobenzyl)-3-fluoro-2,2-dimethylpropanamide], the half-maximal inhibitory concentration (IC50) is below 50 nM. Besides, where the note is “crude microsomal fractions”, the inhibition at 1 µM stood at 91.5% and the inhibition at 10 µM is 93.9%.

Consider `O=C(NCc1ccccc1C(F)(F)F)c1ccc(-n2nc(-c3c(F)cccc3Cl)[nH]c2=O)cc1` [Example-18, 4-[3-(2-Chloro-6-fluorophenyl)-5-oxo-4,5-dihydro-1H-1,2,4-triazol-1-yl]-N-[2-(trifluoromethyl)benzyl]benzamide], for which, under “crude microsomal fractions”, the inhibition at 1 µM came to 56.2% and the inhibition at 10 µM was 98.1%.

Take `Cc1cc(C)n(Cc2ccc(-c3nn(-c4cc(CNC(=O)C(C)(C)C)ccc4Cl)c(=O)[nH]3)cc2)n1` [Example-172, N-(4-Chloro-3-(4,5-dihydro-3-(4-((3,5-dimethyl-1H-pyrazol-1-yl)methyl)phenyl)-5-oxo-1,2,4-triazol-1-yl)benzyl)pivalamide]: the IC50 is above 100 nM. Moreover, where the note is “crude microsomal fractions”, the inhibition at 1 µM was found to be 91.9% and the inhibition at 10 µM stood at 99%.

Regarding `O=C(NCc1ccc(Cl)c(-n2nc(-c3ccc(C#Cc4cccc(C(F)(F)F)c4)cc3F)[nH]c2=O)c1)C1CC1` [Example-80, N-(4-Chloro-3-(3-(2-fluoro-4-((3-(trifluoromethyl)phenyl)ethynyl)phenyl)-5-oxo-4,5-dihydro-1H-1,2,4-triazol-1-yl)benzyl)cyclopropanecarboxamide], the IC50 is below 50 nM. Further, where the note is “crude microsomal fractions”, the inhibition at 1 µM turned out to be 97% and the inhibition at 10 µM was determined as 97.1%.
